Data on 4 compounds can be found in patent US20170140097A1, “Methods For Identifying Agents With Desired Biological Activity” (The Procter & Gamble Company, priority 2012, published 2017).

In assay [1] the test system is dandruff average condition profile. The assay is described as follows: Signature-free query for agents with gene expression profiles most different from a query condition (dandruff) (FIG. 17). Particulars: greater distance = more likely to reverse the condition. From the text:
Turning next to the method 110, FIG. 10 depicts a method 150 for performing a query for perturbagens eliciting a biological response that is dissimilar to that induced by a condition (e.g., chemicals likely to reverse a particular condition in a cell) (block 112). The method includes determining an average condition profile to use as a query (block 152), as described above. Specifically, the average condition profile (also referred to as an “adjusted condition gene expression profile”) may be calculated by finding the average expression value for each of the subset of probes used to learn the expression matrix. That is, if all of probes ID1-IDN (referring to FIG. 13) were used to learn the expression matrix, the average expression profile for a condition tested in instances 3A-10A and 3B-10B would include an average expression value for probe ID1: The average condition profile is projected onto the projection space (block 154). The distance from the average condition profile to each of the perturbagens in the projection space matrix is determined (block 156) and, at least in some embodiments, the perturbagens are ranked according to the distance of each in the projection space from the average condition profile (block 158). In some embodiments, the distance is calculated as a cosine distance. In some embodiments, the distance is calculated as a Euclidean distance. […]

In another assay the test system is MCF7 cell line. The assay is described as follows: Signature-free query for agents with biological activity similar to estradiol in cell line MCF7 (FIG. 15). The assay is classed as cell-based. As to conditions: cell line MCF7 (expresses estrogen receptors); top five and bottom five chemicals. An excerpt: Using the projection space matrix, it is possible to determine the similarity (or difference) between gene expression profiles in the projection space. The methods 100 and 110, for example, perform queries for similar biological activity (block 108) and biological dissimilarity (i.e., agents most likely to reverse a clinical endpoint) (block 112), respectively, by looking at the distances between instances depicted in the projection space matrix. Turning first to the method 100, FIG. 9 depicts a method 140 for performing a query for similar biological activity between instances mapping to two points in the projection space (e.g., for performing a query for similar activity between perturbagens) (block 108). […]
A query perturbagen (also referred to as a query agent) is then selected from the perturbagens in the projection space matrix (block 144). […] The distance from the query perturbagen in the projection space is calculated for each instance (or for a selected subset of instances) in the projection space matrix (block 146). In some embodiments, the distance is calculated as a cosine distance. In some embodiments, the distance is calculated as a Euclidean distance. […]
With reference to FIGS. 15 and 16, the effect of different perturbagens on different cell types at the transcriptional level is readily apparent. […]

On to `CC(C)(C)C(=O)C(Oc1ccc(Cl)cc1)n1ccnc1` (stereo not shown) [Climbazole], for which the “ranking according to distance from the query condition” value in assay [1] is “more distant from the query condition”.

On to `CCN(CC)CCOc1ccc(C(=C(Cl)c2ccccc2)c2ccccc2)cc1` [Clomifene], for which the “ranking according to distance from query perturbagen estradiol” value with MCF7 cell line was “most dissimilar”.

As to `C[C@]12CC[C@@H]3c4ccc(O)cc4C[C@@H](CCCCCCCCC[S+]([O-])CCCC(F)(F)C(F)(F)F)[C@H]3[C@@H]1CC[C@@H]2O` (stereo partly shown) [Fulvestrant], in the assay on MCF7 cell line, the “ranking according to distance from query perturbagen estradiol” value is listed as “most dissimilar”.

Regarding `CC(=O)N1CCN(c2ccc(OCC3COC(Cn4ccnc4)(c4ccc(Cl)cc4Cl)O3)cc2)CC1` (stereo not shown) [Ketocanozole], in assay [1], the “ranking according to distance from the query condition” value is given as “more distant from the query condition”.
